The source of these data is the supplement of paper PMC11061612.

What all share (test): Bliss excess, mean over the matrix (fraction); higher = more synergy
The subject of assay [1] is KYSE-70 (Esophageal Squamous Cell Carcinoma). The procedure, abridged: (§1)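 Cell lines grown in DMEM/F12 or RPMI with 10% FBS were plated in 1536-well plates and held 24 hours at 37°C, 5% CO2 before 72 hours of exposure to two-drug dose matrices, with DMSO typically at 0.2%. CellTiter-Glo 2.0 luminescence gave viability, which was converted to inhibition. Vehicle wells were set to 0 and blank wells to 1. Combination Emax is the second-highest inhibition in the matrix, and Bliss excess is the observed combination effect minus the expected EA + EB − EA·EB, where EA and EB are the single-agent effects.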

The test system of assay [2] is FLO-1 (Esophageal Adenocarcinoma). An outline of the steps:
as §1

Another assay relates to CHL-1 (Melanoma). An outline of the steps:
as §1

For assay [3], the system named is Calu-6 (Non-Small Cell Lung Carcinoma). An outline of the steps:
as §1

For assay [4], the system named is NCI-H1155 (Non-Small Cell Lung Carcinoma). The procedure, abridged:
as §1

Assay [5] relates to CML-T1 (Chronic Myelogenous Leukemia). The procedure, abridged:
as §1

In assay [6] the test system is HSC-3 (Oral Cavity Carcinoma). An outline of the steps: as §1
Assay [7] relates to NCI-H196 (Small Cell Lung Carcinoma). The procedure, abridged:
as §1

For assay [8], the system named is NCI-H1755 (Lung Adenocarcinoma). The procedure, abridged:
as §1

Assay [9] has as its system RPMI-8866 (Chronic Myelogenous Leukemia). The procedure, abridged: as §1
The test system of assay [10] is NCI-H1623 (Lung Adenocarcinoma). An outline of the steps: as §1
Assay [11] deals with JHH-1 (Hepatocellular Carcinoma). An outline of the steps:
as §1

Assay [12] deals with EB-3 (Burkitt's Lymphoma). An outline of the steps:
as §1

Assay [13] deals with COLO-684 (Endometrial Carcinoma). The procedure, abridged: as §1
Assay [14] concerns SK-MM-2 (Plasma Cell Myeloma). An outline of the steps:
as §1

Assay [15] relates to RL95-2 (Endometrial Carcinoma). An outline of the steps: as §1
Assay [16] relates to SJRH30 (Rhabdomyosarcoma). The procedure, abridged:
as §1

The subject of the next assay is KYM-1 (Rhabdomyosarcoma). An outline of the steps: as §1
Another assay concerns HuO-3N1 (Osteosarcoma). An outline of the steps:
as §1

Assay [17] deals with OV-90 (Ovarian Carcinoma). The procedure, abridged:
as §1

Structures are written as SMILES.

Take `CC1(C)CCC(CN2CCN(c3ccc(C(=O)NS(=O)(=O)c4ccc(NCC5CCOCC5)c([N+](=O)[O-])c4)c(Oc4cnc5[nH]ccc5c4)c3)CC2)=C(c2ccc(Cl)cc2)C1` [Venetoclax] + Cn1cnc2c(F)c(Nc3ccc(Br)cc3Cl)c(C(=O)NOCCO)cc21 [Selumetinib] (first compound max 1 µM, 7x7, partner max 3 µM): the Bliss excess in assay [1] is 0.012; in [2], -0.0485; with CHL-1 (Melanoma), -0.0418; in [3], -0.0665; in assay [4] it was -0.0317; in [5] it was 0.0069. For the same compound, the Bliss excess in assay [6] is -0.0043; in assay [7] it was -0.044; in assay [8], 0.0328; in [9], -0.057; in assay [10] it was -0.0046; in assay [11] it was -0.0588. Moreover, the Bliss excess is -0.0241 in assay [12]; -0.0263 in assay [13]; 0.0187 in [14]; -0.0313 in assay [15]; -0.0199 in [16]; -0.003 in the assay on KYM-1 (Rhabdomyosarcoma). The Bliss excess in the assay on HuO-3N1 (Osteosarcoma) is -0.011; in [17], -0.0345.

Consider `CS(=O)(=O)CCNCc1ccc(-c2ccc3ncnc(Nc4ccc(OCc5cccc(F)c5)c(Cl)c4)c3c2)o1` [Lapatinib] + C[C@@H](Oc1cc(-c2cnn(C3CCNCC3)c2)cnc1N)c1c(Cl)ccc(F)c1Cl [Crizotinib] (first compound max 10 µM, 7x7, partner max 10 µM), for which the Bliss excess was -0.0359 in assay [1]; -0.0535 in assay [2]; -0.0393 in the assay on CHL-1 (Melanoma); 0.0122 in assay [3]; -0.0185 in [4]; -0.106 in assay [5]. Further, the Bliss excess in [6] was -0.0395; in assay [7], -0.0564; in [8] it was -0.0468; in assay [9], 0.005; in assay [10], 0.0555; in [11], -0.0906. The Bliss excess was -0.0572 in assay [12]; -0.0364 in [13]; -0.0207 in assay [14]; -0.0535 in [15]; -0.0323 in assay [16]; -0.0515 in the assay with KYM-1 (Rhabdomyosarcoma). Further, the Bliss excess is -0.0423 in the assay on HuO-3N1 (Osteosarcoma) and -0.0019 in assay [17].

For `CN(CCO)CC[C@H](CSc1ccccc1)Nc1ccc(S(=O)(=O)NC(=O)c2ccc(N3CCC([C@@H](O)c4ccccc4-c4ccc(Cl)cc4)CC3)cc2)cc1S(=O)(=O)C(F)(F)F` [AZD4320] + CN(C)CCCOc1ccc(-c2ccc3ncc4c(c3c2)n(C2CCOCC2)c(=O)n4C)cn1 [AZD0156] (first compound max 1 µM, 7x7, partner max 1 µM), the Bliss excess in assay [1] is -0.0124; in assay [2], 0.0007; with CHL-1 (Melanoma), -0.0242; in [3], -0.0156; in [4], -0.0105; in [5] it was 0.013. Also, the Bliss excess was -0.0532 in assay [6]; -0.0414 in assay [7]; -0.0164 in assay [8]; -0.0756 in assay [9]; -0.071 in assay [10]; -0.0513 in assay [11]. In addition, the Bliss excess in [12] was -0.0389; in assay [13] it was -0.0218; in assay [14], 0.0468; in assay [15] it was -0.0408; in assay [16], 0.0144; in the assay with KYM-1 (Rhabdomyosarcoma) it was -0.0256. Further, the Bliss excess in the assay on HuO-3N1 (Osteosarcoma) was -0.0021; in assay [17], -0.0141.

On to `Cc1cc2ncnn2cc1Nc1ncc2c(n1)n(C1CCOCC1)c(=O)n2C` [AZD7648] + C[C@@H]1COCCN1C2=NC(=NC(=C2)C3(CC3)[S@](=N)(=O)C)C4=C5C=CNC5=NC=C4 [AZD6738] (first compound max 10 µM, 7x7, partner max 10 µM), for which the Bliss excess is 0.0213 in assay [1]; -0.0191 in [2]; 0.0093 in the assay on CHL-1 (Melanoma); -0.018 in assay [3]; 0.0038 in [4]; -0.0465 in [5]. In addition, the Bliss excess in assay [6] was -0.0299; in [7] it was 0.0126; in assay [8], 0.0513; in assay [9], -0.028; in assay [10] it was 0.0359; in assay [11], 0.0354. The Bliss excess is -0.0278 in assay [12]; -0.0527 in assay [13]; 0.0022 in [14]; 0.024 in assay [15]; 0.0113 in [16]; 0.0015 in the assay with KYM-1 (Rhabdomyosarcoma). Also, the Bliss excess in the assay with HuO-3N1 (Osteosarcoma) is 0.0042; in assay [17] it was -0.0156.

As for `COc1cccc(OCCCN)c1-c1cc(Nc2cnc(C#N)cn2)n[nH]1` [Prexasertib] + CCc1c2c(nc3ccc(O)cc13)-c1cc3c(c(=O)n1C2)COC(=O)[C@]3(O)CC [SN-38] (first compound max 1 µM, 7x7, partner max 0.3 µM), the Bliss excess in assay [1] was 0.0907; in assay [2], 0.0153; with CHL-1 (Melanoma), 0.0254; in [3], -0.0116; in assay [4], -0.0161; in assay [5], 0.0077. Further, the Bliss excess is -0.0455 in assay [6]; 0.0391 in assay [7]; -0.0057 in assay [8]; 0.0104 in [9]; -0.0364 in assay [10]; -0.11 in assay [11]. Further, the Bliss excess in [12] was -0.0404; in assay [13], 0.0379; in assay [14], -0.0714; in assay [15], 0.153; in assay [16], 0.012; in the assay with KYM-1 (Rhabdomyosarcoma), -0.0634. Besides, the Bliss excess is -0.0105 in the assay with HuO-3N1 (Osteosarcoma) and -0.0591 in [17].
